Source: PubChem BioAssay (NCI)
Where “and” joins values, the source holds several entries; their conditions need not be identical. Equal values may be shown once.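 Protocol summary: plate cells (96-well), add compound at 5 concentrations, incubate 48 h, interpolate endpoints linearly. At the GI50, growth is halved. TGI marks complete inhibition of growth.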

Key:
Test in all cases: inhibition of tumour cell growth, NCI panel, 48 h
[1] = system: SK-MEL-5 melanoma
[2] = system: SF-268 CNS
[3] = system: CCRF-CEM leukemia
[4] = system: HOP-92 NSCLC
[5] = system: SR leukemia
[6] = system: NCI-H460 lung
[7] = system: NCI-H226 lung
[8] = system: TK-10 renal
[9] = system: CAKI-1 renal
[10] = system: LOX IMVI melanoma

Row | SMILES | GI50 [1] | TGI [1] | GI50 [2] | TGI [2] | GI50 [3] | TGI [3] [µM] | GI50 [4] | TGI [4] | TGI [5] [µM] | GI50 [6] | TGI [6] | GI50 [7] | TGI [7] [µM] | GI50 [8] | TGI [8] | GI50 [9] | TGI [9] | GI50 [10] | TGI [10] | GI50 [5] [µM]
1 | CN(C)Cc1c[nH]c2c(NCCN)c3c(c(NCCN)c12)C(=O)c1ccccc1C3=O | 3.86 µM | 9.14 µM | 3.65 µM | 14.7 µM | 1.06 µM | 8.93 | 1.53 µM | 5.49 µM | > 100 | 8.04 µM | 26.8 µM | 1.56 µM | 5.35 | 3.25 µM | 9.49 µM | 20.8 µM | 41.7 µM | 0.556 µM | 1.88 µM | –
2 | CC(CC(=O)Nc1ccc(NC(=O)CC(C)N=NC(N)=S)cc1)N=NC(N)=S (configuration not stated) | – | > 100 µM | – | > 100 µM | – | > 100 | – | > 100 µM | > 100 | – | > 100 µM | – | > 100 | – | > 100 µM | – | > 100 µM | – | > 100 µM | –
3 | O=S(=O)(CCOCc1ccc(-c2ccc3ncnc(Nc4ccc(OCc5cccc(F)c5)c(Cl)c4)c3c2)o1)c1ccccc1 | > 25 µM | > 25 µM | > 25 µM | > 25 µM | > 25 µM | > 25 | > 25 µM | > 25 µM | > 25 | > 25 µM | > 25 µM | > 25 µM | > 25 | 1.17 µM | > 25 µM | 0.831 µM | > 25 µM | > 25 µM | > 25 µM | > 25
4 | NC(=O)c1cccc(Nc2nccc(Nc3cccc(F)c3)n2)c1 | 4.9 µM | > 16.3 µM | 11.7 µM | > 25 µM | 8.54 µM | > 25 | 2.66 µM | 18.1 µM | > 25 | 7 µM | > 25 µM | 4.74 µM | > 21.7 | 6.51 µM | > 23.7 µM | 7.24 µM | > 25 µM | 7.66 µM | > 25 µM | 7.1
5 | CC1(C)N=C(N)N=C(N)N1c1ccc(OCC(=O)Nc2ccccc2)c(Cl)c1 | 1.08 µM | > 100 µM | 0.677 µM | > 100 µM | 2.17 µM | > 100 | 68.9 µM | > 100 µM | > 51.6 | 0.0748 µM | > 100 µM | > 71.6 µM | > 100 | 32.4 µM | > 100 µM | > 85.9 µM | > 100 µM | 0.589 µM | > 100 µM | 0.515
6 | O=C1C=C(O)c2[nH]c(=O)ccc2C1=O | – | > 100 µM | – | > 100 µM | – | > 100 | – | > 100 µM | > 100 | – | > 100 µM | – | > 100 | – | > 100 µM | – | > 100 µM | – | > 100 µM | –
7 | Cc1nnc(N/N=C(/C(=O)C(C#N)c2ccccc2)C(C#N)c2ccccc2)n1N (configuration not stated) | – | 32.7 µM | – | > 61.3 µM | – | 15.9 | – | > 100 µM | > 100 | – | 12.6 µM | – | > 61.7 | – | > 100 µM | – | > 56 µM | – | 5.65 µM | –
8 | CC/C(=N\NS(=O)(=O)c1ccccc1)c1ccccc1 | – | > 100 µM | – | > 100 µM | – | > 100 | – | > 100 µM | > 100 | – | > 100 µM | – | > 100 | – | > 100 µM | – | > 100 µM | – | > 100 µM | –
9 | O=c1c(Cl)c(Cl)cnn1CCc1ccncc1 | – | 30.4 µM | – | 40.8 µM | – | 88.8 | – | 38.5 µM | 57.2 | – | 37.8 µM | – | 84.1 | – | > 100 µM | – | 3.99 µM | – | 33.7 µM | –
10 | O=S1(=O)NCCCN1CCNc1nccc(-c2c(-c3cccc(O)c3)nc3sccn23)n1 | 1.71 µM | 17.3 µM | 24.4 µM | > 100 µM | 13.5 µM | > 100 | 27.3 µM | > 93.5 µM | 59.3 | 21.5 µM | > 100 µM | 18.9 µM | 73.9 | 33.6 µM | > 100 µM | 17.4 µM | > 94 µM | 2.46 µM | 24 µM | 5.55
11 | CCC1=C[C@@H]2CN(C1)Cc1c([nH]c3ccccc13)[C@@](C(=O)OC)(c1cc3c(cc1OC)N(C)[C@H]1[C@@](O)(C(=O)OC)[C@H](OC(C)=O)[C@]4(CC)[C@@H]5C[C@@H]5CN5CC[C@]31[C@@H]54)C2 | < 0.005 µM and 0.017 µM | 0.327 µM and 1.77 µM | < 0.005 µM and 0.0151 µM | 8.94 µM and 12.8 µM | < 0.005 µM | – | < 0.005 µM | 0.353 µM | – | < 0.005 µM | 5.05 µM and 11.6 µM | 0.0191 µM | 6.57 | – | – | 0.0319 µM and 0.0818 µM | 6.17 µM and 20.5 µM | < 0.005 µM | – | < 0.005
12 | CCCCCCCCCCN=C(c1ccc(N(C)C)cc1)c1ccc(N(C)C)cc1 | 0.67 µM | 18.4 µM | 3.4 µM | 67.9 µM | 1.78 µM | > 77.3 | 1.92 µM | 26.5 µM | > 46.8 | 0.437 µM | 24.5 µM | 10.8 µM | > 81.3 | 3.81 µM | 49.7 µM | 1.43 µM | 64.3 µM | 0.601 µM | > 96.1 µM | 0.211
13 | CCN(CC)CCNC(=O)c1cn2ncnc(Oc3ccc(NC(=O)Nc4ccc(Cl)c(C(F)(F)F)c4)c(F)c3)c2c1C | 1.75 µM | 3.15 µM | 1.92 µM | 3.74 µM | 1.41 µM | 4.29 | 1.6 µM | 3.56 µM | 1.09 | 1.99 µM | 3.87 µM | 2.05 µM | 4.15 | 2.38 µM | 4.04 µM | 1.69 µM | 3.13 µM | 1.3 µM | 2.62 µM | 0.343
14 | COc1ccc(/C=C2/CCc3cc4ccc(OC)cc4[o+]c32)c(O)c1 | 14 µM | 41.1 µM | 2.8 µM | 9.83 µM | 3.88 µM | > 100 | 11.7 µM | 29.1 µM | 45.6 | 2.8 µM | 9.74 µM | 12.3 µM | 25.7 | 11.7 µM | 24.6 µM | 10.7 µM | 22.5 µM | 2.12 µM | 5.02 µM | 3.04
15 | CC1(C)CC[C@H](C2=CC(=O)c3c(O)ccc(O)c3C2=O)O1 | 1.65 µM and 1.36 µM and 0.464 µM | 4.08 µM and 2.68 µM and 1.22 µM | 3.54 µM and 2.19 µM and 1.01 µM | 10.3 µM and 6.27 µM and 6.67 µM | 0.666 µM and 0.114 µM | – | 1.75 µM and 1.14 µM and 0.263 µM | 3.39 µM and 2.5 µM and 0.725 µM | 1.46 | 5.14 µM and 1.61 µM and 1.45 µM | 19.5 µM and 3.36 µM and 3.86 µM | 5.01 µM and 1.79 µM and 0.611 µM | – | 1.5 µM and 1.72 µM and 0.604 µM | 3.98 µM and 3.1 µM and 1.66 µM | 1.11 µM and 1.38 µM and 0.48 µM | 2.44 µM and 2.72 µM and 1.17 µM | 1.78 µM and 0.303 µM and 0.658 µM | 4.66 µM and 1.13 µM and 1.97 µM | 0.0764
